Peptide text beside a SMILES is read from it. * marks the point of attachment. DEAC = CCN(CC)c1ccc2cc(C(=O)*)c(=O)oc2c1
What was measured:
[1] = Transmission electron microscopy (TEM) of self-assembly; format: physicochemical; conditions: aqueous solution, particle size distribution histogram (Figure 3b, S10)
Text: (§1) Next, we examined the factors driving excimer formation. […] […].

[2] = Dynamic light scattering (DLS); format: physicochemical; conditions: solution; DLS (Figure S11)
Text: as §1

[3] = Concentration-dependent fluorescence (excimer formation) in furin working buffer; format: physicochemical; conditions: under UV irradiation (365 nm lamp)
Procedure: In the next phase, we investigated the optical properties of RF-Cou and its enzymatic product F-Cou. […] In contrast, as the concentration increased, a new emission peak around 550 nm gradually emerged in the fluorescence spectra of F-Cou. […] These observations confirmed the formation of Cou excimers.
Figure 2 The fluorescence emission spectra and images of RF-Cou (a,c) and F-Cou (b,d) at different concentrations in furin working buffer. […] The fluorescence spectra were conducted with the excitation of 430 nm and the slit width of 5 nm. The fluorescence images were taken under the 365 nm UV lamp irradiation.

[4] = not given; remark: listed apart in the source
[5] = not given; remark: listed apart in the source
[6] = not given; remark: listed apart in the source
[7] = Critical micelle concentration (CMC) measurement by transmittance; conditions: furin working buffer
Procedure: The transmittance spectra of the solutions were measured using a UV-3600 spectrophotometer (SHIMADZU, Kyoto, Japan).

[8] = not given; remark: listed apart in the source
furin = furin (Homo sapiens, UniProt P09958); format: biochemical; conditions: 200 μM with 50 U/mL furin, 37 °C, 12 h
furin, sequence (P09958 108-794, species assumed): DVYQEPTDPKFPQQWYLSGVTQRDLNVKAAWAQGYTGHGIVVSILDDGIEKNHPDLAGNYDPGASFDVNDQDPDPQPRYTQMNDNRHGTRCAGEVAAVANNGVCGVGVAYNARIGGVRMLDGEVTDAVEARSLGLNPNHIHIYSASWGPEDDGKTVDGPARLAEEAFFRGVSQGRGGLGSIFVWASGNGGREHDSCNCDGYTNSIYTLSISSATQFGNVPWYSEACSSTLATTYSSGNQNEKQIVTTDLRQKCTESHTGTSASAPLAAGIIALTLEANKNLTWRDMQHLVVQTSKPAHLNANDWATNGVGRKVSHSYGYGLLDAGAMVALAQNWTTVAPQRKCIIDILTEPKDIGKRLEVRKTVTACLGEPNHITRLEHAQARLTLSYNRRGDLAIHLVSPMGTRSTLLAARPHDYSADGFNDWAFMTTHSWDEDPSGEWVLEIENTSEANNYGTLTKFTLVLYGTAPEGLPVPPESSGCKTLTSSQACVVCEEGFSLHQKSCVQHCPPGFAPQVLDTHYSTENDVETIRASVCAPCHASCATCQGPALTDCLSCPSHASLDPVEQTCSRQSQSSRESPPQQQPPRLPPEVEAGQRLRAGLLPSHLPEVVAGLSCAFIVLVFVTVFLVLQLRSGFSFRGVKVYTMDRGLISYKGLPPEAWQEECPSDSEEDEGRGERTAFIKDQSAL
Procedure: Based on the above in vitro experiments, we concluded that RF-Cou existed as a blue fluorescent monomer in aqueous solution. […] These findings validated the feasibility of using RF-Cou for subsequent precision live-cell imaging studies of furin activity.
Figure 3 (a) Fluorescence decay profiles of the first emission peak at 475 nm (blue) and the last emission peak at 550 nm (green) of 200 μM F-Cou; λex = 405 nm. (b) TEM image of F-Cou. Inset: the particle size distribution histogram. (c) LC-MS traces of 200 μM RF-Cou incubated with or without 50 U/mL furin at 37 °C for 12 h. The blue line corresponds to the probe RF-Cou, and the green line represents its cleavage product F-Cou. TEXT PRINTED IN THE PICTURE: (a) no label printed: First peak at 475 nm <τ> = 4.26 ns; Last peak at 550 nm <τ> = 10.73 ns | (b) no label printed: d = 51.1 ± 9.8 nm

[9] = system: normal mouse fibroblast L929 cells; format: cell-based; conditions: 200 µM
Procedure: 4T1 mouse breast cancer cells or L929 mouse fibroblast cells were cultured in RPMI-1640 medium or Dulbecco’s Modified Eagle’s medium (DMEM) supplemented with 10% v/v FBS, 100 U/mL penicillin, 100 μg/mL streptomycin, and 0.25 μg/mL amphotericin B, respectively. These cells were incubated at 37 °C in a humidified atmosphere of 5% CO2. First, the cells (4T1, L929 cell lines) were seeded in 96-well plates (3 × 10^3 cells in each well) and incubated in a 37 °C cell incubator for 24 h. The RPMI-1640 medium or DMEM was replaced with different concentrations of RF-Cou (0, 1.5, 3.1, 6.2, 12.5, 25.0, 50.0, 100, and 200 μM) in the medium and incubated for 24 h or 48 h, respectively. MTT (5 mg/mL, 10 μL) was then added to each well, and the cells were incubated for another 4 h. The formed formazan crystals were dissolved by DMSO (100 μL per well), and the absorbance at 570 nm was measured using a microplate reader (BioTek, Winooski, VT, USA).

[10] = system: furin-overexpressing 4T1 tumor cells; test: Confocal live-cell fluorescence imaging of furin activity, 4T1 cells; format: cell-based, mouse; conditions: 200 μM
Procedure: (§2) 4T1 cells or L929 cells were seeded on confocal dishes (1 × 10^5 cells/dish) and incubated at 37 °C in a humidified atmosphere of 5% CO2 for 24 h. Following the removal of the conditioned medium, 4T1 cells or L929 cells were treated with RF-Cou (200 μM) at various times (0, 0.5, 1, 2, 4, 6, and 8 h). After the incubation was completed, the medium was discarded, PBS was added to clean the cells three times, and laser confocal scanning microscopy was used for cell imaging. To investigate the role of furin in activating excimer fluorescence, 4T1 cells were pre-incubated with 1 mM of furin inhibitor II (Inh) for 30 min and then treated with RF-Cou (200 μM) for 0.5 h or 6 h before imaging.
(§3) Figure 5 (a) Confocal fluorescence images of furin-overexpressing 4T1 cells or normal L929 cells incubated with 200 μM RF-Cou at varying time points; λex = 405 nm, monomer channel (blue) λem = 415–485 nm; excimer channel (green) λem = 520–600 nm; Scale bar: 50 μm. Time-dependent relative fluorescence intensity in monomer and excimer channels of 4T1 (b) or L929 (c) cells, respectively (n = 3, mean ± SD).
Figure 6 (a) Confocal fluorescence images of 4T1 or L929 cells incubated with 200 μM RF-Cou for 0.5 h or 6 h after being treated with or without furin inhibitor (Inh); λex = 405 nm, monomer channel (blue) λem = 415–485 nm; excimer channel (green) λem = 520–600 nm; Scale bar: 50 μm. Fluorescence intensity in monomer and excimer channels of 4T1 (b) or L929 (c) cells, respectively (n = 3, mean ± SD). Flow cytometry results of the excimer channel fluorescence in 4T1 (d) or L929 (e) incubated with 200 μM RF-Cou for 6 h after being treated with or without Inh.

L929 normal cells = test: Confocal live-cell fluorescence imaging, L929 cells; format: cell-based, mouse; conditions: 200 μM
Procedure: as §2, §3
Figure 6 (a) Confocal fluorescence images of 4T1 or L929 cells incubated with 200 μM RF-Cou for 0.5 h or 6 h after being treated with or without furin inhibitor (Inh); λex = 405 nm, monomer channel (blue) λem = 415–485 nm; excimer channel (green) λem = 520–600 nm; Scale bar: 50 μm. […]

For CCN(CC)c1ccc2cc(C(=O)NCCCC[C@H](N)C(=O)N[C@@H](Cc3ccccc3)C(=O)N[C@@H](Cc3ccccc3)C(=O)O)c(=O)oc2c1 [F-Cou, Lys(Cou)-Phe-Phe-OH], the “Nanoparticle diameter by TEM” value [1] was 51.1 ± 9.8 nm, the “Hydrodynamic diameter by DLS” value [2] was 69.2 ± 18.4 nm and the “Concentration above which the solution changes from blue to green (excimer formation)” value [3] was “exceeded 31.25 μM”. For the same compound, the maximum absorption peak was 430 nm, the logP (physchem) was 1.15 and the fluorescence lifetime <τ>, 475 nm emission peak [4] was 4.26 ns. The fluorescence lifetime <τ>, 550 nm emission peak [5] was 10.7 ns, the fold enhancement of fluorescence lifetime, 550 nm vs 475 nm band [6] was 2.5 fold and the “Critical micelle concentration (CMC)” value ([7]; transmittance-concentration curve at 600 nm (Figure S9)) was 45.1 µM.
With CCN(CC)c1ccc2cc(C(=O)NCCCC[C@H](NC(=O)[C@H](CCCNC(=N)N)NC(=O)[C@H](CCCNC(=N)N)NC(=O)[C@@H](NC(=O)[C@H](CCCNC(=N)N)NC(C)=O)C(C)C)C(=O)N[C@@H](Cc3ccccc3)C(=O)N[C@@H](Cc3ccccc3)C(=O)O)c(=O)oc2c1 [RF-Cou, Ac-Arg-Val-Arg-Arg-Lys(Cou)-Phe-Phe-OH] (Ac-RVRRK(DEAC)FF-OH) the maximum emission peak [8] was 475 nm, the “Nanoparticle diameter by TEM” value [1] was “no nanoparticle distribution was observed” and the “Hydrodynamic diameter by DLS” value [2] was “no detectable signal corresponding to nanoparticles”. The “Cleavage by furin, LC-MS” value (furin) was “could be enzymatically processed by furin to generate F-Cou”, the Cell viability [9] was “over 80%” and the “Excimer fluorescence after furin inhibitor pretreatment” value ([10]; 4T1 cells pretreated with 1 mM furin inhibitor II (Inh) for 30 min, 6 h) was “significantly weaker than that in cells without Inh pretreatment”. For the same compound, the Cellular uptake ([10]; 4T1 cells with or without Inh pretreatment, 0.5 h, confocal fluorescence) was “successful cellular uptake”, the “Excimer channel fluorescence intensity vs monomer channel” value ([10]; 4T1 cells, peak at 6 h, λex 405 nm, excimer 520–600 nm, monomer 415–485 nm, n = 3) was 3.2 fold and the Cellular uptake (L929 normal cells; 0.5 h, confocal fluorescence) was “successful cellular uptake”. The “Monomer channel fluorescence intensity vs excimer channel” value (L929 normal cells; 6 h, λex 405 nm, excimer 520–600 nm, monomer 415–485 nm, n = 3) was “approximately 5.1 fold”, the maximum absorption peak was 430 nm and the logP (physchem) was -1.46. The “Transmittance (self-assembly performance)” value ([7]; concentrations up to 800 μM, transmittance at 600 nm, UV-3600 spectrophotometer) was over 95%.

— PMC12156344, “Furin-Triggered Peptide Self-Assembly Activates Coumarin Excimer Fluorescence for Precision Live-Cell Imaging” (Molecules, 2025)
